Experimental data as given in patent US20200288683A1, “LOSS OF FUNCTION RODENT MODEL OF SOLUTE CARRIER 39 MEMBER 5” (Regeneron Pharmaceuticals, Inc., priority 2019, published 2020).

Tests used:
[1] = test system: LKB1/AMPK and AKT signaling pathways in human primary hepatocytes; experiment: Zinc activation of LKB1/AMPK and AKT signaling in human primary hepatocytes (immunoblot); assay type: cell-based; settings: human primary hepatocytes (5-donor pool, HM CPP5, Thermofisher); acute; FIG. 12B
Protocol: (§1) FIGS. 12A-12B. […] 1° Hu Hepatocytes* (5-donor pool): HM CPP5, Thermofisher.
(§2) Liver protein was extracted using RIPA buffer (Cell signaling technology, Cat #9806) with Halt Protease & Phosphatase Inhibitor Cocktail (ThermoFisher Scientific, Cat #78440). Five microgram protein of each sample were separated in NuPAGE 4-12% Bis-Tris protein gel (Invitrogen, Cat # WG1403BOX), and transferred to nitrocellulose membrane using Trans-Blot® Turbo™ Transfer System (BioRad). Blotting was performed using the following Cell Signaling Technology antibodies: Phospho-AMPKa (Thr172) (Cell signaling technology, Cat #2535), AMPKa (Cell signaling technology, Cat #5831), 13-Actin (Sigma, Cat #5441), Phospho-AKT (Ser473) (Cell signaling technology, Cat #4060), AKT (Cell signaling technology, Cat #9272), Phospho-LKB1 (Ser428) (Cell signaling technology, Cat #3482), LKB1 (Cell signaling technology, Cat #3050), rabbit IgG conjugated to horseradish peroxidase (HRP) (Cell signaling technology, Cat #7074) and mouse IgG conjugated to HRP (Cell signaling technology, Cat #7076). Blots were developed using SuperSignal West Femto Substrate (ThermoFisher Scientific, Cat #34095). Signals were captured using ImageQuant LAS4000 (GE Healthcare).

[2] = test system: LKB1/AMPK and AKT signaling pathways in human hepatoma HepG2 cells; experiment: Zinc activation of LKB1/AMPK and AKT signaling in HepG2 cells (immunoblot); assay type: cell-based; settings: acute, FIG. 12A
Protocol: as §1, §2

[Zn] [Zinc]
activation of LKB1/AMPK and AKT signaling pathways [1]: activates LKB1/AMPK and AKT signaling pathways in dose dependent manner | activation of LKB1/AMPK and AKT signaling pathways [2]: activates LKB1/AMPK and AKT signaling pathways in dose dependent manner
